Biological target: T1, NLRP3 (Homo sapiens, UniProt Q96P20)
T1 construct: Seed THP-1 cells (25,000 cells/well) containing 1.0 μg/ml LPS; host or cells: THP-1 cells, LPS-primed, nigericin-stimulated
Test: THP-1 cells pyroptosis assay (LPS-primed, nigericin-stimulated, resazurin readout)
Format: cell-based
Details: 1 μg/ml LPS, 5 μM nigericin
Experimental: THP-1 cells (ATCC #TIB-202) were grown in RPMI containing L-glutamine (Gibco #11835) supplemented with 1 mM sodium pyruvate (Sigma #S8636) and penicillin (100 units/ml)/streptomycin (0.1 mg/ml) (Sigma #P4333) in 10% Fetal Bovine Serum (FBS) (Sigma #F0804). The cells were routinely passaged and grown to confluency (˜10^6 cells/ml). On the day of the experiment, THP-1 cells were harvested and resuspended into RPMI medium (without FBS). The cells were then counted and viability (>90%) checked by Trypan blue (Sigma #T8154). Appropriate dilutions were made to give a concentration of 625,000 cells/ml. To this diluted cell solution was added LPS (Sigma #L4524) to give a 1 μg/ml Final Assay Concentration (FAC). 40 μl of the final preparation was aliquoted into each well of a 96-well plate. The plate thus prepared was used for compound screening.
The following method step-by-step assay was followed for compound screening. • 1. Seed THP-1 cells (25,000 cells/well) containing 1.0 μg/ml LPS in 40 μl of RPMI medium (without FBS) in 96-well, black walled, clear bottom cell culture plates coated with poly-D-lysine (VWR #734-0317) • 2. Add 5 μl compound (8 points half-log dilution, with 10 μM top dose) or vehicle (DMSO 0.1% FAC) to the appropriate wells • 3. Incubate for 3 hrs at 37° C. in 5% CO2 • 4. […] Plates were read in an Envision reader at Ex 560 nm and Em 590 nm • 9. […]

T1 sequence (Q96P20 whole entry): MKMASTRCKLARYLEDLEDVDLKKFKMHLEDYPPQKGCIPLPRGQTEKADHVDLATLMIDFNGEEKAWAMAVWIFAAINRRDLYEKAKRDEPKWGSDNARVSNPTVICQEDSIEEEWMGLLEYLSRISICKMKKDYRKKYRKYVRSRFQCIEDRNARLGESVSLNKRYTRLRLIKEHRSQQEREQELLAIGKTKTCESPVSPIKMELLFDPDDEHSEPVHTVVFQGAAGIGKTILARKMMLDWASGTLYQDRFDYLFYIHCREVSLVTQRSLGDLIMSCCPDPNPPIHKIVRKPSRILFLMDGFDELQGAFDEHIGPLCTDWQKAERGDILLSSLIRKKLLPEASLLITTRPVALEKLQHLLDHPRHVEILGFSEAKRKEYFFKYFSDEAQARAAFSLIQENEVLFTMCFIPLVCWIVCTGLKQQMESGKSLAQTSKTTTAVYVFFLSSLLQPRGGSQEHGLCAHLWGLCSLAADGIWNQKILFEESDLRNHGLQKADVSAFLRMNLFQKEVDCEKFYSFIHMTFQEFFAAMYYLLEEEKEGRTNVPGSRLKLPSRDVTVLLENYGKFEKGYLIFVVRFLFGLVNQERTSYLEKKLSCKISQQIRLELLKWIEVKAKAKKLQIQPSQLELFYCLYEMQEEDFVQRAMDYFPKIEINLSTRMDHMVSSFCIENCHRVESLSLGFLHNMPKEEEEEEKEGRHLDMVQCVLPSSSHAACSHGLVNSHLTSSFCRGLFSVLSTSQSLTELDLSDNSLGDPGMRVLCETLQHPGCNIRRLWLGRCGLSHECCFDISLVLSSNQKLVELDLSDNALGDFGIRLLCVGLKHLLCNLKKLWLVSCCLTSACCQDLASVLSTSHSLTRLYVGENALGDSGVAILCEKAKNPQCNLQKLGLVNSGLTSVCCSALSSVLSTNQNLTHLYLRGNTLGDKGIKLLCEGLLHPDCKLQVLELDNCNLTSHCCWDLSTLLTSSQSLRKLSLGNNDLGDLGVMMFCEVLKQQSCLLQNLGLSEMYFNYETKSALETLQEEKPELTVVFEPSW

IC50 [nM] | Structure (SMILES)
160 to 640 | Cn1nc(S(=O)(=O)NC(=O)Nc2c3c(c(C#N)c4c2CCC4)CCC3)cc1C(C)(C)O [Example 1, N-((8-Cyano-1,2,3,5,6,7-hexahydro-s-indacen-4-yl)carbamoyl)-5-(2-hydroxypropan-2-yl)-1-methyl-1H-pyrazole-3-sulfonamide]
≤ 160 | Cn1nc(S(=O)(=O)NC(=O)Nc2c3c(c(Br)c4c2CCC4)CCC3)cc1C(C)(C)O [Example 2, N-((8-Bromo-1,2,3,5,6,7-hexahydro-s-indacen-4-yl)carbamoyl)-5-(2-hydroxypropan-2-yl)-1-methyl-1H-pyrazole-3-sulfonamide]

Source: patent US11905252B2, “Compounds” (INFLAZOME LIMITED, priority 2018, dated 2024)
